{"source": "patent US6936604B2", "about": "“Bridged bicyclic amino acid-derived [1,4]benzodiazepine vasopressin receptor antagonists” (Ortho-McNeil Pharmaceutical, Inc., priority 2001, dated 2005)", "key": {"human V2 receptor": {"molecular_target": "T1, human V2 receptor (Homo sapiens, UniProt P30518)", "T1 construct": "expressed in transfected cells; host or cells: HEK-293", "experiment": "In vitro recombinant vasopressin receptor binding assay (3H-arginine vasopressin displacement), V2", "conditions": "cloned human V2 receptor membranes, HEK-293 cells", "protocol": "(§1) In Vitro Recombinant Vasopressin Receptor Binding Assay\n(§2) Compounds were assessed for their ability to displace ^3H-arginine vasopressin from the human V1a or V2 receptor in HEK-293 cells. Assay buffer is 50 mM Tris-Cl, 5 mM MgCl2, 0.1% BSA (pH 7.5) containing 5 μg/mL of aprotinin, leupeptin, pepstatin, 50 μg/mL bacitracin, and 1 mM Pefabloc. ^3H-vasopressin is ^3H-arginine-8-vasopressin (68.5 Ci/mmol, final concentration in assay is 0.65-0.75 nM). Into wells of 96-well round bottom polypropylene plates were added buffer, test compound, membrane (containing cloned human V1a or V2 receptor) and ^3H-vasopressin. The reaction plates were allowed to sit at room temperature for one hour. The samples were filtered through Unifilter GF/C plates (presoaked in 0.3 polyethyleneimine). The plates were washed 5 times with cold physiological saline containing 0.05% Tween 20. After drying, the bottom of the filter plates were sealed and 0.025 mL of Microscint-20 was added to each filter. The top of the plate was sealed, and the plate was counted."}, "human V1a receptor": {"molecular_target": "T2, human V1a receptor (Homo sapiens, UniProt P37288)", "T2 construct": "expressed in transfected cells; host or cells: HEK-293", "T2 sequence (P37288 whole entry)": "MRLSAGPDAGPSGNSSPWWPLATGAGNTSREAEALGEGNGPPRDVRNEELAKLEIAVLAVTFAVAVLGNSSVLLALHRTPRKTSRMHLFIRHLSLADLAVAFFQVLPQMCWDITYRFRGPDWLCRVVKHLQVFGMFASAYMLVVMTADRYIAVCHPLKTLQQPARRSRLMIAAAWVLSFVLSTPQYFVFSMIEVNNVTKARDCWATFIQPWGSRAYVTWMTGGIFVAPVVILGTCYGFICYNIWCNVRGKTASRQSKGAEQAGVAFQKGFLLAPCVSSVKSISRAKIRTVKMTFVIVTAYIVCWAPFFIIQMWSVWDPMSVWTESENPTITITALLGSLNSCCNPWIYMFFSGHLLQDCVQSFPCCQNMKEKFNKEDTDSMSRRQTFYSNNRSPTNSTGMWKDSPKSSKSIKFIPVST", "experiment": "In vitro recombinant vasopressin receptor binding assay (3H-arginine vasopressin displacement), V1a", "conditions": "cloned human V1a receptor membranes, HEK-293 cells", "protocol": "as §1, §2"}, "[1]": {"test_system": "conscious hydrated male rats", "experiment": "Diuresis study, acute diuretic effect after oral administration", "type": "in vivo, Sprague Dawley rats", "conditions": "4 hours urine collection, mean±SE", "protocol": "The acute diuretic effect of compounds of the invention after oral administration was tested according to the procedure described herein.\nMature male Sprague Dawley rats, 200-300 gms, from Charles River Labs Inc. were housed one rat per cage, in a rodent room. Room temperature was maintained at […] and humidity at 30-70%. Room lighting was on a 12 hrs light/12 hrs dark cycle. Rats were fed laboratory rodent diet, #5001 (supplied from Purina Mills, St.Louis, Mo. via W. F. Fisher, Bound Brook, N.J.).\nFour different concentrations of test compound were prepared. For each dose, compound was prepared as a uniform suspension in 0.5% methylcellulose vehicle using a water bath sonicator to ensure uniform suspension and dosed in a volume of 2 ml/kg.\nAll animals were fasted for 18 hours and weights were taken and recorded for each animal. Animals were dosed orally with drug via gavage needle. After oral dosing, animals were placed into metabolism racks for 4 hours. The urine was collected and the volume measured. Aliquots of 0.5 mL were stored at 4° C. for later analysis.\nEach value represents the mean±SE. *Data has a p value of <0.05 versus vehicle using Dunnett's Multiple Comparison Test. **Data has a p value of <0.01 versus vehicle. ^aNumber of animals in parentheses represent the number of animals providing osmolality values (if different than the number of animals providing urine volume values)."}}, "note": "Marks after values point to notes of the source that are not given here.", "data": [{"compound": "O=C(Nc1ccc(C(=O)N2C[C@@H]3C4CCC(CC4)N3Cc3cc(Cl)ccc32)cc1)c1ccccc1Cl", "note": "[Compound 15, N-[4-[[(6aS)-2-chloro-6,6a,7,8,9,10-hexahydro-7,10-ethanopyrido[2,1-c][1,4]benzodiazepin-5(12H)-yl]carbonyl]phenyl]-2-chloro-benzamide]", "values": [{"measurement": "IC50", "setting": "human V2 receptor", "value": 35, "unit": "nM"}, {"measurement": "IC50", "setting": "human V1a receptor", "value": 13, "unit": "nM"}]}, {"compound": "Cc1ccc(-c2ccccc2C(=O)Nc2ccc(C(=O)N3C[C@@H]4C5CCC(CC5)N4Cc4cc(Cl)ccc43)cc2)cc1", "note": "[Compound 16, N-[4-[[(6aS)-2-chloro-6,6a,7,8,9,10-hexahydro-7,10-ethanopyrido[2,1-c][1,4]benzodiazepin-5(12H)-yl]carbonyl]phenyl]-4′-methyl-[1,1′-biphenyl]-2-carboxamide]", "values": [{"measurement": "IC50", "setting": "human V2 receptor", "value": 72, "unit": "nM"}, {"measurement": "IC50", "setting": "human V1a receptor", "value": 59, "unit": "nM"}]}, {"compound": "Cc1ccc(-c2ccccc2C(=O)Nc2ccc(C(=O)N3C[C@@H]4C5CCC(C5)N4Cc4ccccc43)c(Cl)c2)cc1", "note": "(stereo partly drawn) [Compound 7, N-[4-[[(6aS)-6,6a,7,8,9,10-hexahydro-7,10-methanopyrido[2,1-c][1,4]benzodiazepin-5(12H)-yl]carbonyl]-3-chlorophenyl]-4′-methyl-[1,1′-biphenyl]-2-carboxamide]", "values": [{"measurement": "IC50", "setting": "human V2 receptor", "value": 3, "unit": "nM"}, {"measurement": "IC50", "setting": "human V1a receptor", "value": 35, "unit": "nM"}]}, {"compound": "O=C(Nc1ccc(C(=O)N2C[C@@H]3C4CCC(C4)N3Cc3cc(Cl)ccc32)cc1)c1ccccc1F", "note": "(stereo partly drawn) [Compound 10, N-[4-[[(6aS)-2-chloro-6,6a,7,8,9,10-hexahydro-7,10-methanopyrido[2,1-c][1,4]benzodiazepin-5(12H)-yl]carbonyl]phenyl]-2-fluoro-benzamide]", "values": [{"measurement": "IC50", "setting": "human V2 receptor", "value": 10, "unit": "nM"}, {"measurement": "IC50", "setting": "human V1a receptor", "value": 5, "unit": "nM"}]}, {"compound": "O=C(Nc1ccc(C(=O)N2C[C@@H]3C4CCC(C4)N3Cc3ccccc32)c(Cl)c1)c1ccccc1-c1ccccc1", "note": "(mixture of isomers) [Compound 3, N-[4-[[(6aS)-6,6a,7,8,9,10-hexahydro-7,10-methanopyrido[2,1-c][1,4]benzodiazepin-5(12H)-yl]carbonyl]-3-chlorophenyl]-[1,1′-biphenyl]-2-carboxamide]", "values": [{"measurement": "IC50", "setting": "human V2 receptor", "value": 15, "unit": "nM"}]}, {"compound": "Cc1ccc(-c2ccccc2C(=O)Nc2ccc(C(=O)N3C[C@@H]4C5CCC(C5)N4Cc4cc(Cl)ccc43)cc2)cc1", "note": "(stereo partly drawn) [Compound 6, N-[4-[[(6aS)-2-chloro-6,6a,7,8,9,10-hexahydro-7,10-methanopyrido[2,1-c][1,4]benzodiazepin-5(12H)-yl]carbonyl]phenyl]-4′-methyl-[1,1′-biphenyl]-2-carboxamide]", "values": [{"measurement": "IC50", "setting": "human V2 receptor", "value": 5, "unit": "nM"}, {"measurement": "IC50", "setting": "human V1a receptor", "value": 24, "unit": "nM"}, {"measurement": "Urine Osmolality", "setting": "[1]; 1.0 mg/Kg oral", "value": "387 ± 15", "unit": "mOsm/kg"}, {"measurement": "Urine Volume", "setting": "[1]; 1.0 mg/Kg oral", "value": "2.9 ± 0.2", "unit": "mL"}, {"measurement": "Urine Osmolality", "setting": "[1]; 3.0 mg/Kg oral", "value": "226 ± 9** mOsm/kg"}, {"measurement": "Urine Volume", "setting": "[1]; 3.0 mg/Kg oral", "value": "5.8 ± 0.5** mL"}, {"measurement": "Urine Osmolality", "setting": "[1]; 10 mg/Kg oral", "value": "159 ± 9** mOsm/kg"}, {"measurement": "Urine Volume", "setting": "[1]; 10 mg/Kg oral", "value": "17.8 ± 1.3** mL"}]}, {"compound": "O=C(Nc1ccc(C(=O)N2C[C@@H]3C4CCC(C4)N3Cc3cc(Cl)ccc32)cc1)c1ccccc1Cl", "note": "(stereo partly drawn) [Compound 11, N-[4-[[(6aS)-2-chloro-6,6a,7,8,9,10-hexahydro-7,10-methanopyrido[2,1-c][1,4]benzodiazepin-5(12H)-yl]carbonyl]phenyl]-2-chloro-benzamide]", "values": [{"measurement": "IC50", "setting": "human V2 receptor", "value": 7, "unit": "nM"}, {"measurement": "IC50", "setting": "human V1a receptor", "value": 4, "unit": "nM"}]}, {"compound": "O=C(Nc1ccc(C(=O)N2C[C@@H]3C4CCC(C4)N3Cc3cc(Cl)ccc32)cc1)c1ccccc1-c1ccc(F)cc1", "note": "(stereo partly drawn) [Compound 9, N-[4-[[(6aS)-2-chloro-6,6a,7,8,9,10-hexahydro-7,10-methanopyrido[2,1-c][1,4]benzodiazepin-5(12H)-yl]carbonyl]phenyl]-4′-fluoro-[1,1′-biphenyl]-2-carboxamide]", "values": [{"measurement": "IC50", "setting": "human V2 receptor", "value": 26, "unit": "nM"}, {"measurement": "IC50", "setting": "human V1a receptor", "value": 68, "unit": "nM"}]}, {"compound": "O=C(Nc1ccc(C(=O)N2CC3C4CCC(CC4)N3Cc3ccccc32)c(Cl)c1)c1ccccc1-c1ccccc1", "note": "(racemic) [Compound 2, N-[4-[(6,6a,7,8,9,10-hexahydro-7,10-ethanopyrido[2,1-c][1,4]benzodiazepin-5(12H)-yl)carbonyl]-3-chlorophenyl]-[1,1′-biphenyl]-2-carboxamide]", "values": [{"measurement": "IC50", "setting": "human V2 receptor", "value": 4, "unit": "nM"}]}, {"compound": "O=C(Nc1ccc(C(=O)N2C[C@@H]3C4CCC(C4)N3Cc3ccccc32)c(Cl)c1)c1ccccc1-c1ccccc1", "note": "(stereo partly drawn) [Compound 4, N-[4-[[(6aS)-6,6a,7,8,9,10-hexahydro-7,10-methanopyrido[2,1-c][1,4]benzodiazepin-5(12H)-yl]carbonyl]-3-chlorophenyl]-[1,1′-biphenyl]-2-carboxamide]", "values": [{"measurement": "IC50", "setting": "human V2 receptor", "value": 4, "unit": "nM"}, {"measurement": "IC50", "setting": "human V1a receptor", "value": 24, "unit": "nM"}, {"measurement": "Urine Osmolality", "setting": "[1]; 0.3 mg/Kg oral", "value": "444 ± 79* mOsm/kg"}, {"measurement": "Urine Volume", "setting": "[1]; 0.3 mg/Kg oral", "value": "2.5 ± 0.3", "unit": "mL"}, {"measurement": "Urine Osmolality", "setting": "[1]; 1.0 mg/Kg oral", "value": "299 ± 34* mOsm/kg"}, {"measurement": "Urine Volume", "setting": "[1]; 1.0 mg/Kg oral", "value": "6.0 ± 0.7* mL"}, {"measurement": "Urine Osmolality", "setting": "[1]; 3.0 mg/Kg oral", "value": "180 ± 9* mOsm/kg"}, {"measurement": "Urine Volume", "setting": "[1]; 3.0 mg/Kg oral", "value": "15.1 ± 1.4* mL"}, {"measurement": "Urine Osmolality", "setting": "[1]; 10 mg/Kg oral", "value": "138 ± 11* mOsm/kg"}, {"measurement": "Urine Volume", "setting": "[1]; 10 mg/Kg oral", "value": "29.9 ± 2.0* mL"}]}, {"compound": "O=C(Nc1ccc(C(=O)N2C[C@H]3C4CCC(C4)N3Cc3ccccc32)c(Cl)c1)c1ccccc1-c1ccccc1", "note": "(stereo partly drawn) [Compound 5, N-[4-[[(6aR)-6,6a,7,8,9,10-hexahydro-7,10-methanopyrido[2,1-c][1,4]benzodiazepin-5(12H)-yl]carbonyl]-3-chlorophenyl]-[1,1′-biphenyl]-2-carboxamide]", "values": [{"measurement": "IC50", "setting": "human V2 receptor", "value": 15, "unit": "nM"}, {"measurement": "Urine Osmolality", "setting": "[1]; 0.3 mg/Kg oral", "value": "408 ± 37* mOsm/kg"}, {"measurement": "Urine Volume", "setting": "[1]; 0.3 mg/Kg oral", "value": "1.4 ± 0.1* mL"}, {"measurement": "Urine Osmolality", "setting": "[1]; 1.0 mg/Kg oral", "value": "303 ± 29* mOsm/kg"}, {"measurement": "Urine Volume", "setting": "[1]; 1.0 mg/Kg oral", "value": "3.4 ± 0.4* mL"}, {"measurement": "Urine Osmolality", "setting": "[1]; 3.0 mg/Kg oral", "value": "238 ± 18* mOsm/kg"}, {"measurement": "Urine Volume", "setting": "[1]; 3.0 mg/Kg oral", "value": "9.4 ± 1.1* mL"}, {"measurement": "Urine Osmolality", "setting": "[1]; 10 mg/Kg oral", "value": "172 ± 9* mOsm/kg"}, {"measurement": "Urine Volume", "setting": "[1]; 10 mg/Kg oral", "value": "19.5 ± 1.4* mL"}]}, {"compound": "N-[4-[[(6aS)-2-chloro-6,6a,7,8,9,10-hexahydro-7,10-methanopyrido[2,1-c][1,4]benzodiazepin-5(12H)-yl]carbonyl]-3-chlorophenyl]-2-(trifluoromethyl)-benzamide [Compound 12]", "values": [{"measurement": "IC50", "setting": "human V2 receptor", "value": 15, "unit": "nM"}, {"measurement": "IC50", "setting": "human V1a receptor", "value": 10, "unit": "nM"}]}, {"compound": "O=C(Nc1ccc(C(=O)N2C[C@@H]3C4CCC(CC4)N3Cc3ccccc32)c(Cl)c1)c1ccccc1-c1ccccc1", "note": "[Compound 13, N-[4-[[(6aS)-6,6a,7,8,9,10-hexahydro-7,10-ethanopyrido[2,1-c][1,4]benzodiazepin-5(12H)-yl]carbonyl]-3-chlorophenyl]-[1,1′-biphenyl]-2-carboxamide]", "values": [{"measurement": "IC50", "setting": "human V2 receptor", "value": 24, "unit": "nM"}]}, {"compound": "Cc1ccc(F)cc1C(=O)Nc1ccc(C(=O)N2C[C@@H]3C4CCC(CC4)N3Cc3ccccc32)c(Cl)c1", "note": "[Compound 14, N-[4-[[(6aS)-6,6a,7,8,9,10-hexahydro-7,10-ethanopyrido[2,1-c][1,4]benzodiazepin-5(12H)-yl]carbonyl]-3-chlorophenyl]-5-fluoro-2-methyl-benzamide]", "values": [{"measurement": "IC50", "setting": "human V2 receptor", "value": 19, "unit": "nM"}]}]}
